Patent US8299048B2, “Hexahydrocyclopentyl[f]indazole sulfonamides and derivatives thereof as selective glucocorticoid receptor modulators” (Merck Sharp & Dohme Corp., priority 2008, dated 2012)

Target: T1, glucocorticoid receptor (Homo sapiens, UniProt P04150)
T1 construct: endogenous in cells
T1 sequence (P04150 1-777): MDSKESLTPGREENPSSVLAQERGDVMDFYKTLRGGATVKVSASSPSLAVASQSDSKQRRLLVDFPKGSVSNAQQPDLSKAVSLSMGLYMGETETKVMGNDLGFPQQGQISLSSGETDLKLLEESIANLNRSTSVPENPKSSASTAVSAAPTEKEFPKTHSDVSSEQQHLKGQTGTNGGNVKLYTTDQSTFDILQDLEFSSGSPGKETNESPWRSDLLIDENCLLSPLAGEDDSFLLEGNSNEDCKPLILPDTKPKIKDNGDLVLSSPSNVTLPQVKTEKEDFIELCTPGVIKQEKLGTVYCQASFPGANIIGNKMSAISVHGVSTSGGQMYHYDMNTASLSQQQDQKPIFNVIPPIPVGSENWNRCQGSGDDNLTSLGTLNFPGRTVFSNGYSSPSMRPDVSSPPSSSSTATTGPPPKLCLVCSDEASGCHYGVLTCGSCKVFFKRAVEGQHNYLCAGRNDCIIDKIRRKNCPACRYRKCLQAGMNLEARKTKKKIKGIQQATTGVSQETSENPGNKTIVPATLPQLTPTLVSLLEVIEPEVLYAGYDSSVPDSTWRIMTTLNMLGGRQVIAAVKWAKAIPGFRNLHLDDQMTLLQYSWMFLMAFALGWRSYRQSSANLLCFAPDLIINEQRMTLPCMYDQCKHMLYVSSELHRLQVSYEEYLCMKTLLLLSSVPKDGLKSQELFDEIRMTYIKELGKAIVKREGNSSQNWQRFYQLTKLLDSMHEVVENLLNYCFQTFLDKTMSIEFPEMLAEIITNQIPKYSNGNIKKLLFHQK
Experiment: Ligand binding assay (GR BIND)
Experimental: • Materials: • Binding Buffer: TEGM (10 mM Tris-HCl, 1 mM EDTA, 10% glycerol, 1 mM beta-mecaptoethanol, 10 mM Sodium Molybdate, pH 7.2) • 50% HAP Slurry: Calbiochem Hydroxylapatite, Fast Flow, in 10 mM Tris, pH 8.0 and 1 mM EDTA. • Wash Buffer: 40 mM Tris, pH7.5, 100 mM KCl, 1 mM EDTA and 1 mM EGTA.
Phenol red-free Trypsin-EDTA is diluted in the same PBS1:10. The cell layers are rinsed with 1× Trypsin, extra Trypsin is poured out, and the cell layers are incubated at 37° C. for ˜2 min. The flask is tapped and checked for signs of cell detachment. Once the cells begin to slide off the flask, the complete media is added. The cells are counted at this point, then diluted to the appropriate concentration and split into flasks or dishes for further culturing (Usually 1:3 to 1:6 dilution).
When the cells are 70 to 85% confluent, they are detached as described above, and collected by centrifuging at 1000 g for 10 minutes at 4° C. The cell pellet is washed twice with TEGM (10 mM Tris-HCl, 1 mM EDTA, 10% glycerol, 1 mM beta-mercaptoethanol, 10 mM Sodium Molybdate, pH 7.2). After the final wash, the cells are resuspended in TEGM at a concentration of 10^7 cells/mL. The cell suspension is snap frozen in liquid nitrogen or ethanol/dry ice bath and transferred to −80° C. freezer on dry ice. Before setting up the binding assay, the frozen samples are left on ice-water to just thaw (˜1 hr). Then the samples are centrifuged at 12,500 g to 20,000 g for 30 min at 4° C. The supernatant is used to set-up assay right away. If using 50 μL of supernatant, the test compound can be prepared in 50 μL of the TEGM buffer.
1×TEGM buffer is prepared, and the isotope-containing assay mixture is prepared in the following order: EtOH (2% final concentration in reaction), 3H-DEX (Amersham Biosciences) and 1×TEGM. [e.g. For 100 samples, 200 μL (100×2) of EtOH+4.25 μL of 1:10 ^3H—Dex stock+2300 μL (100×23) 1×TEGM]. The compound is serially diluted, e.g., if starting final conc. is 1 μM, and the compound is in 25 μL of solution, for duplicate samples, 75 μL of 4×1 μM solution is made and 3 μL of 100 μM is added to 72 μL of buffer, and 1:5 serial dilution.
25 μL of ^3H-DEX (6 nM) trace and 25 μL compound solution are first mixed together, followed by addition of 50 μL receptor solution. The reaction is gently mixed, spun briefly at about 200 rpm and incubated at 4° C. overnight. 100 μL of 50% HAP slurry is prepared and added to the incubated reaction which is then vortexed and incubated on ice for 5 to 10 minutes. The reaction mixture is vortexed twice more to resuspend HAP while incubating reaction. The samples in 96-well format are then washed in wash buffer using The FilterMate™ Universal Harvester plate washer (Packard). The washing process transfers HAP pellet containing ligand-bound expressed receptor to Unifilter-96 GF/B filter plate (Packard). The HAP pellet on the filter plate is incubated with 50 μL of MICROSCINT (Packard) scintillint for 30 minutes before being counted on the TopCount microscintillation counter (Packard). […] are calculated using DEX as a reference.

Molecule COc1ccccc1CCN(C[C@H]1CCC2=Cc3c(cnn3-c3ccc(F)cc3)C[C@@]21C)S(=O)(=O)CC(F)(F)F [Example 120, 2,2,2-trifluoro-N-{[(4αR,5S)-1-(4-fluorophenyl)-4α-methyl-1,4,4α,5,6,7-hexahydrocyclopenta[f]indazol-5-yl]methyl}-N-[2-(2-methoxyphenyl)ethyl]ethanesulfonamide] has a Ki of 1.3 nM.
C[C@]12Cc3cnn(-c4ccc(F)cc4)c3C=C1CC[C@@H]2CN(CCc1ccccc1F)S(=O)(=O)Cc1ccc(Cl)cc1Cl [Example 105, 1-(2,4-dichlorophenyl)-N-[2-(2-fluorophenyl)ethyl]-N-{[(4αR,5S)-1-(4-fluorophenyl)-4α-methyl-1,4,4α,5,6,7-hexahydrocyclopenta[f]indazol-5-yl]methyl}methanesulfonamide] gave a Ki of 1.7 nM.
Molecule COC(=O)c1ccccc1CCN(C[C@H]1CCC2=Cc3c(cnn3-c3ccc(F)cc3)C[C@@]21C)S(=O)(=O)CC(F)(F)F [Example 159, methyl 2-(2-{{[(4αR,5S)-1-(4-fluorophenyl)-4α-methyl-1,4,4α,5,6,7-hexahydrocyclopenta[f]indazol-5-yl]methyl}[(2,2,2-trifluoroethyl)sulfonyl]amino}ethyl)benzoate] has a Ki of 1.9 nM.
C[C@]12Cc3cnn(-c4ccc(F)cc4)c3C=C1CC[C@@H]2CN(CC(O)C(F)F)S(=O)(=O)Cc1cccnc1 (stereo partly drawn) [Example 154, N-(3,3-difluoro-2-hydroxypropyl)-N-{[(4αR,5S)-1-(4-fluorophenyl)-4α-methyl-1,4,4α,5,6,7-hexahydrocyclopenta[f]indazol-5-yl]methyl}-1-pyridin-3-ylmethanesulfonamide] showed a Ki of 1.3 nM.
Work on C[C@]12Cc3cnn(-c4ccc(F)cc4)c3C=C1CC[C@@H]2CN(CCc1ccccn1)S(=O)(=O)Cc1ccncc1 [Example 166, N-{[(4αR,5S)-1-(4-fluorophenyl)-4α-methyl-1,4,4α,5,6,7-hexahydrocyclopenta[f]indazol-5-yl]methyl}-1-pyridin-4-yl-N-(2-pyridin-2-ylethyl)methanesulfonamide] yielded a Ki of 1.6 nM.
C[C@]12Cc3cnn(-c4ccc(F)cc4)c3C=C1CC[C@@H]2CN(CCc1ccccc1O)S(=O)(=O)Cc1cccc(C(F)(F)F)c1 [Example 122, N-{[(4αR,5S)-1-(4-fluorophenyl)-4α-methyl-1,4,4α,5,6,7-hexahydrocyclopenta[f]indazol-5-yl]methyl}-N-[2-(2-hydroxyphenyl)ethyl]-1-[3-(trifluoromethyl)phenyl]methanesulfonamide] showed a Ki of 2.9 nM.
With C[C@]12Cc3cnn(-c4ccc(F)cc4)c3C=C1CC[C@@H]2CN(CC(O)C(F)F)S(=O)(=O)CC(F)(F)F (stereo partly drawn) [Example 133, N-(3,3-difluoro-2-hydroxypropyl)-2,2,2-trifluoro-N-{[(4αR,5S)-1-(4-fluorophenyl)-4α-methyl-1,4,4α,5,6,7-hexahydrocyclopenta[f]indazol-5-yl]methyl}ethanesulfonamide] the Ki was 0.8 nM.
Molecule Cn1cc(S(=O)(=O)N(CC(O)C(F)F)C[C@H]2CCC3=Cc4c(cnn4-c4ccc(F)cc4)C[C@@]32C)c(C(F)(F)F)n1 (stereo partly drawn) [Example 156, N-(3,3-difluoro-2-hydroxypropyl)-N-{[(4αR,5S)-1-(4-fluorophenyl)-4α-methyl-1,4,4α,5,6,7-hexahydrocyclopenta[f]indazol-5-yl]methyl}-1-methyl-3-(trifluoromethyl)-1H-pyrazole-4-sulfonamide] has a Ki of 2.5 nM.
Work on Cc1noc(C)c1S(=O)(=O)NC[C@H]1CCC2=Cc3c(cnn3-c3ccc(F)cc3)C[C@@]21C [Example 161, N-{[(4αR,5S)-1-(4-fluorophenyl)-4α-methyl-1,4,4α,5,6,7-hexahydrocyclopenta[f]indazol-5-yl]methyl}-3,5-dimethylisoxazole-4-sulfonamide] yielded a Ki of 4.8 nM.
Work on C[C@]12Cc3cnn(-c4ccc(F)cc4)c3C=C1CC[C@@H]2CN(CC(O)C(F)(F)F)S(=O)(=O)Cc1ccccc1C(N)=O (stereo partly drawn) [Example 167, 2-({[{[(4αR,5S)-1-(4-fluorophenyl)-4α-methyl-1,4,4α,5,6,7-hexahydrocyclopenta[f]indazol-5-yl]methyl}(3,3,3-trifluoro-2-hydroxypropyl)amino]sulfonyl}methyl) benzamide] yielded a Ki of 2.2 nM.
COc1ccccc1CCN(C[C@H]1CCC2=Cc3c(cnn3-c3ccccc3)C[C@@]21C)S(=O)(=O)CC(F)(F)F [Example 139, 2,2,2-trifluoro-N-[2-(2-methoxyphenyl)ethyl]-N-{[(4αR,5S)-4α-methyl-1-phenyl-1,4,4α,5,6,7-hexahydrocyclopenta[f]indazol-5-yl]methyl}ethanesulfonamide] showed a Ki of 1.5 nM.
Work on C[C@]12Cc3cnn(-c4ccc(F)cc4)c3C=C1CC[C@@H]2CN(CC(OS(=O)(=O)CC(F)(F)F)C(F)F)S(=O)(=O)CC(F)(F)F (stereo partly drawn) [Example 134, 2,2-difluoro-1-({{[(4αR,5S)-1-(4-fluorophenyl)-4α-methyl-1,4,4α,5,6,7-hexahydrocyclopenta[f]indazol-5-yl]methyl}[(2,2,2-trifluoroethyl)sulfonyl]amino}methyl)ethyl 2,2,2-trifluoroethanesulfonate] yielded a Ki of 1.8 nM.
Work on CN1CCOc2cc(S(=O)(=O)N(CC3CC3)C[C@H]3CCC4=Cc5c(cnn5-c5ccc(F)cc5)C[C@@]43C)ccc21 [Example 8, N-(cyclopropylmethyl)-N-{[(4αR,5S)-1-(4-fluorophenyl)-4α-methyl-1,4,4α,5,6,7-hexahydrocyclopenta[f]indazol-5-yl]methyl}-4-methyl-3,4-dihydro-2H-1,4-benzoxazine-7-sulfonamide] yielded a Ki of 1.9 nM.
CCCS(=O)(=O)N(CC(O)C(F)F)C[C@H]1CCC2=Cc3c(cnn3-c3ccc(F)cc3)C[C@@]21C (stereo partly drawn) [Example 155, N-(3,3-difluoro-2-hydroxypropyl)-N-{[(4αR,5S)-1-(4-fluorophenyl)-4α-methyl-1,4,4α,5,6,7-hexahydrocyclopenta[f]indazol-5-yl]methyl}propane-1-sulfonamide] gave a Ki of 2.9 nM.
Work on C[C@]12Cc3cnn(-c4ccc(F)cc4)c3C=C1CC[C@@H]2CN(CCc1ccccn1)S(=O)(=O)CCN1C(=O)c2ccccc2C1=O [Example 152, 2-(1,3-dioxo-1,3-dihydro-2H-isoindol-2-yl)-N-{[(4αR,5S)-1-(4-fluorophenyl)-4α-methyl-1,4,4α,5,6,7-hexahydrocyclopenta[f]indazol-5-yl]methyl}-N-(2-pyridin-2-ylethyl)ethanesulfonamide] yielded a Ki of 1.6 nM.
C[C@]12Cc3cnn(-c4ccc(F)cc4)c3C=C1CC[C@@H]2CN(CC(O)c1ccccn1)S(=O)(=O)CC(F)(F)F (stereo partly drawn) [Example 142, 2,2,2-trifluoro-N-{[(4αR,5S)-1-(4-fluorophenyl)-4α-methyl-1,4,4α,5,6,7-hexahydrocyclopenta[f]indazol-5-yl]methyl}-N-(2-hydroxy-2-pyridin-2-ylethyl)ethanesulfonamide] gave a Ki of 0.9 nM.
